Results from US7560586B2, “Acid and ester compounds and methods of using the same” (SmithKline Beecham Corporation, priority 2002, dated 2009).

Experiments:
[1] = biological target: T1, human LXRβ ligand binding domain (Homo sapiens, UniProt P55055); test: Ligand Sensing Assay (LiSA) for LXRβ Agonist Activity (recruitment of SRC1-derived peptide, HTRF); format: biochemical; settings: 1 μM; over a background reading of 10000 fluorescence units
T1 construct: LXRβLBD(185-461) is eluted with a gradient from 50 to 500 mM imidazole; made in house; host or cells: E. coli BL21(DE3), vector pRSETa
T1 sequence (P55055 184-460 limits assumed): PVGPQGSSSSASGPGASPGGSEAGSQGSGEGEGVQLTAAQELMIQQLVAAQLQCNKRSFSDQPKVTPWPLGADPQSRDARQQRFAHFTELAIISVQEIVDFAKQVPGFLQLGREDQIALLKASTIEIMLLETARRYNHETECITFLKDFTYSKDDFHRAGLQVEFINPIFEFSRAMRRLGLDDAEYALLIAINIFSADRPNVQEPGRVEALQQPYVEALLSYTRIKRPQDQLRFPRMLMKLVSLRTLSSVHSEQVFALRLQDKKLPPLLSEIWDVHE
T1 sequence (Q15788 676-700 partner limits assumed): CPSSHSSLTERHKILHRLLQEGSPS
Source text: Test Method 1: Ligand Sensing Assay (LiSA) for LXRβ Agonist Activity
This assay measures the recruitment of a peptide derived from the coactivator protein, SRC1, to the agonist-bound LXRβ. Peptides derived from other nuclear receptor cofactors may be similarly prepared and assayed.
To generate the human LXRβ ligand binding domain suitable for LiSA, a modified polyhistidine tag (MKKGHHHHHHG) (SEQ ID No. 1) was fused in frame to the human LXRβ ligand binding domain (amino acids 185461 of Genbank accession number U07132) and subcloned into the expression vector pRSETa (Invitrogen) under the control of an IPTG inducible T7 promoter. The human LXRβ ligand binding domain was expressed in E. coli strain BL21(DE3). Ten-liter fermentation batches were grown in Rich PO4 media with 0.1 mg/mL Ampicillin at 25° C. for 12 hours, cooled to 9° C. and held at that temperature for 36 hours to a density of OD600=14. At this cell density, 0.25 mM IPTG was added and induction proceeded for 24 hours at 9° C., to a final OD600=16. […]
Typically 25-50 g of cell paste is resuspended in 250-500 mL TBS, pH 8.0 (25 mM Tris, 150 mM NaCl). […] After washing to baseline absorbance with equilibration buffer, the column is washed with approximately one column volume of TBS pH […] containing 95 mM imidazole. […] After washing to baseline absorbance with the dilution buffer the protein is eluted with a gradient from 50-500 mM NaCl. […]

[2] = biological target: T2, LXRα ligand binding domain (Homo sapiens, UniProt Q13133); test: Ligand Sensing Assay for LXRα Agonist Activity; format: biochemical; settings: 1 μM; over a background reading of 10000 fluorescence units
T2 construct: his tag; made in house
T2 sequence (Q13133 183-447): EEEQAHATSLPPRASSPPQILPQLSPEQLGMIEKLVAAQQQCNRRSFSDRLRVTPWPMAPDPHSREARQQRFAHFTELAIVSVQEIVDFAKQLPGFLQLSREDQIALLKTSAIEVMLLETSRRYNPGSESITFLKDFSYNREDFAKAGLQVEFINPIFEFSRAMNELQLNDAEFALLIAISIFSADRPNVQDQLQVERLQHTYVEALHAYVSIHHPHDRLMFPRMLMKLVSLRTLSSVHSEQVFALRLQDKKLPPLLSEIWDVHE
T2 sequence (Q15788 676-700 partner): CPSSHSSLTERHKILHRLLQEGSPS
Method: Test Method 2: Ligand Sensing Assay for LXRα Agonist Activity
The assay for LXRα was run according to the procedures of Test Method 1, above using his-tagged LXRα ligand binding domain (amino acids 183447 of Genbank accession number U22662, with the 14th amino acid corrected to A from R). In this assay 1 μM 24(S), 25-epoxycholesterol gave a reading of 20000 fluorescence units over a background reading of 10000 fluorescence units.

C[C@H](CC[C@@H]1OC1(C)C)[C@H]1CC[C@H]2[C@@H]3CC=C4C[C@@H](O)CC[C@]4(C)[C@H]3CC[C@]12C [24(S), 25-epoxycholesterol]
reading [1]: 20000 fluorescence units
reading [2]: 20000 fluorescence units
